System: Rattus norvegicus
Assay: Ratio of ED50 for po dosed albino Wistar rat assessed as induction of catalepsy to ED50 for methamphetamine-induced stereotyped behavior in po dosed albino Wistar rat
Conditions: not given

Compound	Ratio ED50
CSc1nc2ccccc2n1C1CCN(CCCC(=O)c2ccc(F)cc2)CC1	5.5
O=C(CCCN1CCC(n2c(O)nc3ccccc32)CC1)c1ccc(F)cc1 [BENPERIDOL]	2.1
O=C(CCCN1CCC(O)(c2ccc(Cl)cc2)CC1)c1ccc(F)cc1 [HALOPERIDOL]	1.8
O=C(CCCN1CCC(n2c(=S)[nH]c3ccccc32)CC1)c1ccc(F)cc1 [TIMIPERONE]	6.1

System: not listed separately
Assay: Acute toxicity in po dosed STD-ddY mouse assessed as mortality up to 7 days
Format: organism-based
Conditions: in vivo

Compound	LD50 at 168 h [mg/kg]
CSc1nc2ccccc2n1C1CCN(CCCC(=O)c2ccc(F)cc2)CC1	930
O=C(CCCN1CCC(O)(c2ccc(Cl)cc2)CC1)c1ccc(F)cc1 [HALOPERIDOL]	240
O=C(CCCN1CCC(n2c(=S)[nH]c3ccccc32)CC1)c1ccc(F)cc1 [TIMIPERONE]	500

System: Rattus norvegicus
Assay: Ratio of benperidol ED50 to compound ED50 for apomorphine-induced stereotyped behavior in po dosed albino Wistar rat
Format: functional
Conditions: not given

Compound	Ratio ED50
O=C(CCCN1CCC(n2c(=S)[nH]c3ccccc32)CC1)c1ccc(F)cc1 [TIMIPERONE]	6.5

System: Rattus norvegicus
Assay: Inhibition of apomorphine-induced stereotyped behavior in po dosed albino Wistar rat administered 2 hrs before apomorphine challenge measured after 20 mins
Format: functional
Conditions: not given

Compound	ED50 [mg/kg]
CSc1nc2ccccc2n1C1CCN(CCCC(=O)c2ccc(F)cc2)CC1	0.41
O=C(CCCN1CCC(n2c(O)nc3ccccc32)CC1)c1ccc(F)cc1 [BENPERIDOL]	0.62
O=C(CCCN1CCC(O)(c2ccc(Cl)cc2)CC1)c1ccc(F)cc1 [HALOPERIDOL]	0.85
O=C(CCCN1CCC(n2c(=S)[nH]c3ccccc32)CC1)c1ccc(F)cc1 [TIMIPERONE]	0.095

System: Rattus norvegicus
Assay: Ratio of benperidol ED50 to compound ED50 for methamphetamine-induced stereotyped behavior in po dosed albino Wistar rat
Format: functional
Conditions: not given

Compound	Ratio ED50
O=C(CCCN1CCC(n2c(=S)[nH]c3ccccc32)CC1)c1ccc(F)cc1 [TIMIPERONE]	8.1

System: Rattus norvegicus
Assay: Ratio of haloperidol ED50 to compound ED50 for methamphetamine-induced stereotyped behavior in po dosed albino Wistar rat
Format: functional
Conditions: not given

Compound	Ratio ED50
O=C(CCCN1CCC(n2c(=S)[nH]c3ccccc32)CC1)c1ccc(F)cc1 [TIMIPERONE]	9.3

System: Rattus norvegicus
Assay: Inhibition of methamphetamine-induced stereotyped behavior in po dosed albino Wistar rat administered 2 hrs before methamphetamine challenge measured up to 3 hrs
Format: functional
Conditions: not given

Compound	ED50 [mg/kg]
CSc1nc2ccccc2n1C1CCN(CCCC(=O)c2ccc(F)cc2)CC1	0.2
O=C(CCCN1CCC(n2c(O)nc3ccccc32)CC1)c1ccc(F)cc1 [BENPERIDOL]	0.44
O=C(CCCN1CCC(O)(c2ccc(Cl)cc2)CC1)c1ccc(F)cc1 [HALOPERIDOL]	0.5
O=C(CCCN1CCC(n2c(=S)[nH]c3ccccc32)CC1)c1ccc(F)cc1 [TIMIPERONE]	0.054

System: Rattus norvegicus
Assay: Toxicity in po dosed albino Wistar rat assessed as induction of catalepsy after 8 hrs
Format: organism-based
Conditions: in vivo

Compound	ED50 [mg/kg]
CSc1nc2ccccc2n1C1CCN(CCCC(=O)c2ccc(F)cc2)CC1	1.1
O=C(CCCN1CCC(n2c(O)nc3ccccc32)CC1)c1ccc(F)cc1 [BENPERIDOL]	0.92
O=C(CCCN1CCC(O)(c2ccc(Cl)cc2)CC1)c1ccc(F)cc1 [HALOPERIDOL]	0.88
O=C(CCCN1CCC(n2c(=S)[nH]c3ccccc32)CC1)c1ccc(F)cc1 [TIMIPERONE]	0.33

System: Rattus norvegicus
Assay: Ratio of haloperidol ED50 to compound ED50 for apomorphine-induced stereotyped behavior in po dosed albino Wistar rat
Format: functional
Conditions: not given

Compound	Ratio ED50
O=C(CCCN1CCC(n2c(=S)[nH]c3ccccc32)CC1)c1ccc(F)cc1 [TIMIPERONE]	8.9

System: Rattus norvegicus
Assay: Ratio of ED50 for po dosed albino Wistar rat assessed as induction of catalepsy to ED50 for apomorphine-induced stereotyped behavior in po dosed albino Wistar rat
Conditions: not given

Compound	Ratio ED50
CSc1nc2ccccc2n1C1CCN(CCCC(=O)c2ccc(F)cc2)CC1	2.7
O=C(CCCN1CCC(n2c(O)nc3ccccc32)CC1)c1ccc(F)cc1 [BENPERIDOL]	1.5
O=C(CCCN1CCC(O)(c2ccc(Cl)cc2)CC1)c1ccc(F)cc1 [HALOPERIDOL]	1
O=C(CCCN1CCC(n2c(=S)[nH]c3ccccc32)CC1)c1ccc(F)cc1 [TIMIPERONE]	4.5

System: Mus musculus
Assay: Neuroleptic activity in po dosed STD-ddY mouse assessed as inhibition of spontaneous motor activity by measuring number of revolution of cage for 5 mins
Format: functional
Conditions: not given

Compound	ED50 [mg/kg]
O=C(CCCN1CCC(n2cnc3ccccc32)CC1)c1ccc(F)cc1	4.7
Cc1nc2ccccc2n1C1CCN(CCCC(=O)c2ccc(F)cc2)CC1	0.85
CCc1nc2ccccc2n1C1CCN(CCCC(=O)c2ccc(F)cc2)CC1.Cl	9.1
CCCCc1nc2ccccc2n1C1CCN(CCCC(=O)c2ccc(F)cc2)CC1.Cl	14
Cl.O=C(CCCN1CCC(n2c(-c3ccccc3)nc3ccccc32)CC1)c1ccc(F)cc1	18
O=C(CCCN1CCC(n2c(C(F)(F)F)nc3ccccc32)CC1)c1ccc(F)cc1	> 40
CSc1nc2ccccc2n1C1CCN(CCCC(=O)c2ccc(F)cc2)CC1	6.2
CCSc1nc2ccccc2n1C1CCN(CCCC(=O)c2ccc(F)cc2)CC1.Cl	5
Br.CC(C)Sc1nc2ccccc2n1C1CCN(CCCC(=O)c2ccc(F)cc2)CC1	4.4
O=C(CCCN1CCC(n2c(SCCO)nc3ccccc32)CC1)c1ccc(F)cc1	6.9
O=C(CCCSc1nc2ccccc2n1C1CCN(CCCC(=O)c2ccc(F)cc2)CC1)c1ccc(F)cc1	14
O=C(CCCN1CCC(n2c(SCC(=O)c3ccc(Cl)cc3)nc3ccccc32)CC1)c1ccc(F)cc1	5
O=C(CCCN1CCC(n2c(SCc3ccccc3)nc3ccccc32)CC1)c1ccc(F)cc1	1.3
C#CCSc1nc2ccccc2n1C1CCN(CCCC(=O)c2ccc(F)cc2)CC1.Cl	1.2
Br.CCOC(=O)CSc1nc2ccccc2n1C1CCN(CCCC(=O)c2ccc(F)cc2)CC1	> 40
O=C(CCCN1CCC(n2c(Sc3ccccc3[N+](=O)[O-])nc3ccccc32)CC1)c1ccc(F)cc1	11

Compound	ED50 [mg/kg]
CCOC(=O)Sc1nc2ccccc2n1C1CCN(CCCC(=O)c2ccc(F)cc2)CC1	0.36
CCCCCCC(=O)Sc1nc2ccccc2n1C1CCN(CCCC(=O)c2ccc(F)cc2)CC1.Cl	1
Cl.O=C(CCCN1CCC(n2c(SC(=O)c3ccc(Cl)cc3)nc3ccccc32)CC1)c1ccc(F)cc1	0.96
Cl.Cn1c(=S)n(C2CCN(CCCC(=O)c3ccc(F)cc3)CC2)c2ccccc21	0.54
Br.C=CCn1c(=S)n(C2CCN(CCCC(=O)c3ccc(F)cc3)CC2)c2ccccc21	0.87
O=C(CCCN1CCC(n2nnc3ccccc32)CC1)c1ccc(F)cc1	33
Cc1nc2ccccc2n(C2CCN(CCCC(=O)c3ccc(F)cc3)CC2)c1=O	14.1
CC(=O)O.O=C(CCCN1CCC(n2c(=O)c(O)nc3ccccc32)CC1)c1ccc(F)cc1	> 40
Cc1nc2ccccc2n1C1CCN(CCCC(c2ccc(F)cc2)c2ccc(F)cc2)CC1	40
Fc1ccc(C(CCCN2CCC(n3c(=S)[nH]c4ccccc43)CC2)c2ccc(F)cc2)cc1	20
CSc1nc2ccccc2n1C1CCN(CCCC(c2ccc(F)cc2)c2ccc(F)cc2)CC1	13
OCCSc1nc2ccccc2n1C1CCN(CCCC(c2ccc(F)cc2)c2ccc(F)cc2)CC1	40
O=C(CCCN1CCC(n2c(O)nc3ccccc32)CC1)c1ccc(F)cc1 [BENPERIDOL]	0.56
O=C(CCCN1CCC(O)(c2ccc(Cl)cc2)CC1)c1ccc(F)cc1 [HALOPERIDOL]	0.8
O=c1[nH]c2ccccc2n1C1CCN(CCCC(c2ccc(F)cc2)c2ccc(F)cc2)CC1 [PIMOZIDE]	7.4
O=C(CCCN1CCC(n2c(=S)[nH]c3ccccc32)CC1)c1ccc(F)cc1 [TIMIPERONE]	0.6

System: Mus musculus
Assay: Neuroleptic activity in po dosed STD-ddY mouse assessed as protection against methamphetamine-induced toxicity administered 1 hr before methamphetamine challenge measured after 24 hrs
Format: functional
Conditions: not given

Compound	ED50 [mg/kg]
O=C(CCCN1CCC(n2cnc3ccccc32)CC1)c1ccc(F)cc1	> 3
Cc1nc2ccccc2n1C1CCN(CCCC(=O)c2ccc(F)cc2)CC1	0.81
CCc1nc2ccccc2n1C1CCN(CCCC(=O)c2ccc(F)cc2)CC1.Cl	> 3
CCCCc1nc2ccccc2n1C1CCN(CCCC(=O)c2ccc(F)cc2)CC1.Cl	> 3
Cl.O=C(CCCN1CCC(n2c(-c3ccccc3)nc3ccccc32)CC1)c1ccc(F)cc1	> 3
CSc1nc2ccccc2n1C1CCN(CCCC(=O)c2ccc(F)cc2)CC1	0.68
CCSc1nc2ccccc2n1C1CCN(CCCC(=O)c2ccc(F)cc2)CC1.Cl	> 3
Br.CC(C)Sc1nc2ccccc2n1C1CCN(CCCC(=O)c2ccc(F)cc2)CC1	1.6
O=C(CCCN1CCC(n2c(SCCO)nc3ccccc32)CC1)c1ccc(F)cc1	> 3
O=C(CCCSc1nc2ccccc2n1C1CCN(CCCC(=O)c2ccc(F)cc2)CC1)c1ccc(F)cc1	> 3
O=C(CCCN1CCC(n2c(SCC(=O)c3ccc(Cl)cc3)nc3ccccc32)CC1)c1ccc(F)cc1	1.6
O=C(CCCN1CCC(n2c(SCc3ccccc3)nc3ccccc32)CC1)c1ccc(F)cc1	0.76
C#CCSc1nc2ccccc2n1C1CCN(CCCC(=O)c2ccc(F)cc2)CC1.Cl	0.74
CCOC(=O)Sc1nc2ccccc2n1C1CCN(CCCC(=O)c2ccc(F)cc2)CC1	0.65
CCCCCCC(=O)Sc1nc2ccccc2n1C1CCN(CCCC(=O)c2ccc(F)cc2)CC1.Cl	1.1
Cl.O=C(CCCN1CCC(n2c(SC(=O)c3ccc(Cl)cc3)nc3ccccc32)CC1)c1ccc(F)cc1	0.83
Cc1nc2ccccc2n(C2CCN(CCCC(=O)c3ccc(F)cc3)CC2)c1=O	> 3
CC(=O)O.O=C(CCCN1CCC(n2c(=O)c(O)nc3ccccc32)CC1)c1ccc(F)cc1	> 3
Cc1nc2ccccc2n1C1CCN(CCCC(c2ccc(F)cc2)c2ccc(F)cc2)CC1	> 3
Fc1ccc(C(CCCN2CCC(n3c(=S)[nH]c4ccccc43)CC2)c2ccc(F)cc2)cc1	1
CSc1nc2ccccc2n1C1CCN(CCCC(c2ccc(F)cc2)c2ccc(F)cc2)CC1	2.4
OCCSc1nc2ccccc2n1C1CCN(CCCC(c2ccc(F)cc2)c2ccc(F)cc2)CC1	> 3
O=C(CCCN1CCC(n2c(O)nc3ccccc32)CC1)c1ccc(F)cc1 [BENPERIDOL]	0.63
O=C(CCCN1CCC(O)(c2ccc(Cl)cc2)CC1)c1ccc(F)cc1 [HALOPERIDOL]	0.32
O=c1[nH]c2ccccc2n1C1CCN(CCCC(c2ccc(F)cc2)c2ccc(F)cc2)CC1 [PIMOZIDE]	1.1
O=C(CCCN1CCC(n2c(=S)[nH]c3ccccc32)CC1)c1ccc(F)cc1 [TIMIPERONE]	0.55
